Where a name gives a salt, the structure may show the parent alone. Read-outs that look alike come from different tables or passages of the source.
Legend:
AOC1 = molecular target: T1, AOC1 (Homo sapiens, UniProt P19801); assay: AOC1 biochemical assay (Amplex Red)
T1 construct: purchased R&D Systems 8297-AO-010
T1 sequence (P19801 20-751): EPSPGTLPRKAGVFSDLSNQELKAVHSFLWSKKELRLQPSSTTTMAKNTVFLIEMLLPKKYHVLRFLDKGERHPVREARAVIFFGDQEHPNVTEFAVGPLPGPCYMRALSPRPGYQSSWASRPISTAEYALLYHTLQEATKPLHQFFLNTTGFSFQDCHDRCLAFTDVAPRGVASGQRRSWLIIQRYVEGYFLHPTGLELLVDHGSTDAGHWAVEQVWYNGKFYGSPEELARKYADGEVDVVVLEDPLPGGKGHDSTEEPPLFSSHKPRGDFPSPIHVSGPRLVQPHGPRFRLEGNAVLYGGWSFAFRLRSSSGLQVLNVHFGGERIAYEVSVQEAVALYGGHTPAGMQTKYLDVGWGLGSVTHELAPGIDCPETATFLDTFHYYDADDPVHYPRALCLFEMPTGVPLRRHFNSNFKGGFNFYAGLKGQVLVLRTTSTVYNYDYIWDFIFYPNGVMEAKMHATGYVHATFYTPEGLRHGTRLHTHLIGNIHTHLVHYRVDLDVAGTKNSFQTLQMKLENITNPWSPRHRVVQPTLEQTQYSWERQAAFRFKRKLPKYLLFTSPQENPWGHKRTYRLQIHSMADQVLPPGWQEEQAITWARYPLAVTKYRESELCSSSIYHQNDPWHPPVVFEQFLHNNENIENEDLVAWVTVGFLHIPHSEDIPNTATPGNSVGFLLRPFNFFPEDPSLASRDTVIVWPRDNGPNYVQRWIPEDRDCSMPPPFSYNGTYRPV
Protocol: The Amplex® Red Assay (available from Thermo Fisher Scientific) provides a sensitive method for the detection of H2O2 generated during enzymatic reactions like the amine oxidation catalyzed by AOC1. The assay reagent is a colorless substrate (N-acetyl-3,7-dihydroxyphenoxazine) that reacts in a 1:1 stoichiometry with hydrogen peroxide (H2O2) to produce the fluorescent dye resorufin (7-hydroxyphenoxazin-3-one, excitation/emission maxima=570/585 nm).
An aliquot of 3 μL of the compound dilution is added to a 384 well plate (Optiplate, PS, flat bottom F, black, PERKIN ELMER, #6007270) in a DMSO concentration of 6.6%.
An AOC1 enzyme aliquot (#8297-AO-010, R&D Systems) is thawed on ice, diluted in reaction buffer and added in a volume of 7 μL to the wells to give a final assay concentration of 1 ng/well. After incubation of inhibitor and enzyme for 30 minutes at 37° C., the enzymatic reaction is started with the addition of 10 μL of Amplex® Red reaction mix (final assay concentration: 100 mM sodiumphosphate, 120 μM Amplex® Red reagent (#A22177 Molecular Probes), 1.5 U/mL Horseradish Peroxidase (#P8375 Sigma-Aldrich), 200 μM putrescine (#P7505 Sigma-Alrdich), 0.05% Pluronic F-127 (#P3000MP Sigma-Aldrich), pH 7.4, 37° C.).
After an incubation for 30 minutes at 37° C. the turnover of the substrate is determined directly (or after the addition of an excess of an amine-oxidase inhibitor) with a fluorescence reader (Ex 540 nm/Em 590 nm) like Envision 2104 Multilabel Reader (PERKIN ELMER).

MAO-A = molecular target: T2, MAO-A (Homo sapiens, UniProt P21397); assay: MAO-A biochemical assay (MAO-Glo)
T2 construct: purchased Sigma-Aldrich M7316
T2 sequence (P21397 1-527): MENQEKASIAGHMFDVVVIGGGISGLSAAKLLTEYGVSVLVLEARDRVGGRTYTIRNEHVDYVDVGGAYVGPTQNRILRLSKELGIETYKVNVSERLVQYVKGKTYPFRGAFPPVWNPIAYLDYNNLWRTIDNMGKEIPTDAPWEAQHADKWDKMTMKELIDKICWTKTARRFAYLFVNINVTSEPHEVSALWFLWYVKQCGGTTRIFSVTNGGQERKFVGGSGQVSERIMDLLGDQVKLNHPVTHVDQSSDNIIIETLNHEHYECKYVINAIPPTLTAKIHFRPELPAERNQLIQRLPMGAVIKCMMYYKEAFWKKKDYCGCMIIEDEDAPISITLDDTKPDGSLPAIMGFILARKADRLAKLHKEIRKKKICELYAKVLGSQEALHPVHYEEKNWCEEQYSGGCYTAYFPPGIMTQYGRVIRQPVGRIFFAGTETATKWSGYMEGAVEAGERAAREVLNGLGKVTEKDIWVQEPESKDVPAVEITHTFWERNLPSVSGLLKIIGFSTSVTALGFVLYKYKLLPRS
Excerpt: The MAO-Glo™ Assay (commercially available from PROMEGA, #V1402) provides a sensitive method for the measurement of monoamine oxidase (MAO) activity (Valley, M. P. et al., 2006, Anal. Biochem. 359: 238-246) from a variety of tissues, biofluids or recombinant expressed or purified enzymes. As substrate a derivate of the beetle luciferin ((4S)-4,5-dihydro-2-(6-hydroxybenzothiazolyl)-4-thiazole-carboxylic acid) is used, which is oxidized at a primary amine moiety. After a spontaneous elimination and a catalyzed esterase reaction, the turnover of luciferin by the luciferase is recorded as a signal of MAO-A activity.
An aliquot of 3 μL of the compound dilution is added to a 384 well plate (Optiplate, PS, flat bottom F, black, PERKIN ELMER, #6007270) in a DMSO concentration of 1.025%.
A MAO-A enzyme aliquot (M7316, Sigma-Aldrich) is thawed on ice, diluted in reaction buffer to 1.25 mU/μL and added in a volume of 5 μL to the wells. After incubation for 20 minutes at 37° C., 2 μL of MAO substrate (dissolved in DMSO at 16 mM, diluted to 20 μM in assay buffer to obtain a final assay concentration of 4 μM) is added, mixed, and the mixture further incubated for 60 minutes at 37° C.
The turnover of the substrate is determined by the addition of 10 μL of the Detection Reagent mix which was generated by the addition of reconstitution buffer with esterase (PROMEGA, #V1402) to the luciferin detection reagent (PROMEGA, #V1402). After an incubation period of 20 minutes at 37° C., the luminescent signal is measured with a […], e.g. Envision 2104 Multilabel Reader (PERKIN ELMER).

[1] = comparison table, read-out: IC50 MAO-A

| Structure (SMILES) | IC50 (AOC1; read-out: AOC1 IC50) | IC50 (MAO-A; IC50, read-out: MAO-A) | IC50 (AOC1; comparison table, read-out: IC50 AOC1) | IC50 (MAO-A; [1]) |
| --- | --- | --- | --- | --- |
| COC(=O)CC1CCN(S(=O)(=O)c2ccc(OC/C(=C\F)CN)nc2)CC1 [Example 32] | 5.45 µM | 38.6 µM |  |  |
| NC/C(=C/F)COc1ccc(S(=O)(=O)N2C[C@@H]3[C@H](C2)[C@H]3C(=O)O)cn1 [Example 45, trans-3-[6-((Z)-2-Aminomethyl-3-fluoro-allyloxy)-pyridine-3-sulfonyl]-3-aza-bicyclo[3.1.0]hexane-6-carboxylic acid trifluoroacetate] | 37.6 µM | > 50 µM |  |  |
| CN(C)C(=O)C1CN(S(=O)(=O)c2ccc(OC/C(=C\F)CN)nc2)C1 [Example 25] | 1.32 µM | > 50 µM |  |  |
| CC(=O)N[C@@H]1CCCN(S(=O)(=O)c2ccc(OC/C(=C\F)CN)nc2)C1 [Example 24] | 1 µM | > 50 µM |  |  |
| NC/C(=C/F)COc1ccc(S(=O)(=O)N2CCC(CC(=O)NCCO)CC2)cn1 [Example 52] | 15.1 µM | 25.9 µM |  |  |
| NC/C(=C/F)COc1ccc(S(=O)(=O)N2CCC[C@H]2C(N)=O)cn1 [Example 13] | 0.667 µM | > 50 µM |  |  |
| CC(=O)N1CC(C2CCN(S(=O)(=O)c3ccc(OC/C(=C\F)CN)nc3)CC2)C1 [Example 9] | 4.55 µM | > 50 µM |  |  |
| CN(C)C(=O)CC1CCN(S(=O)(=O)c2ccc(OC/C(=C\F)CN)nc2)CC1 [Example 19] | 12.5 µM | > 50 µM |  |  |
| NC/C(=C/F)COc1ccc(S(=O)(=O)N2CC[C@H](O)C2)cc1 [Reference compound B, reference compound] |  |  | 1.21 µM | 7.25 µM |
| COC1CN(S(=O)(=O)c2ccc(OC/C(=C\F)CN)nc2)C1 [Example 33] | 1.14 µM | 40.5 µM |  | 40.5 µM |
| CNC(=O)[C@@H]1CCCN1S(=O)(=O)c1ccc(OC/C(=C\F)CN)nc1 [Example 8] | 0.497 µM | > 50 µM |  |  |
| NC/C(=C/F)COc1ccc(S(=O)(=O)N2CCC(O)(C(F)(F)F)CC2)cn1 [Example 42] | 2.36 µM | 48.2 µM |  |  |
| NC/C(=C/F)COc1ccc(S(=O)(=O)N2CCC(C(=O)N3CCC3)CC2)cn1 [Example 10] | 3.18 µM | > 50 µM |  |  |
| CC(F)(F)CNC(=O)CC1CCN(S(=O)(=O)c2ccc(OC/C(=C\F)CN)nc2)CC1 [Example 51] | 10.3 µM | 20.1 µM |  |  |
| NC/C(=C/F)COc1ccc(S(=O)(=O)N2C[C@H]3C[C@@]3(C(=O)N3CCOCC3)C2)cn1 [Example 22] | 13.7 µM | > 50 µM |  |  |
| CN(C)C(=O)[C@H]1CCN(S(=O)(=O)c2ccc(OC/C(=C\F)CN)nc2)C1 [Example 4] | 3.42 µM | > 50 µM |  |  |
| NC/C(=C/F)COc1ccc(S(=O)(=O)N2CC(C(N)=O)C2)cn1 [Example 20] | 1.36 µM | > 50 µM |  |  |
| NC/C(=C/F)COc1ccc(S(=O)(=O)N2CCC(C(N)=O)CC2)cn1 [Example 7] | 1.56 µM | > 50 µM |  |  |
| CC1(C(=O)O)CCN(S(=O)(=O)c2ccc(OC/C(=C\F)CN)nc2)CC1 [Example 47] | > 50 µM | > 50 µM |  |  |

From US12213970B2, “Pyridinyl sulfonamide derivatives, pharmaceutical compositions and uses thereof” (Boehringer Ingelheim International GmbH, priority 2018, dated 2025)
